Measured values published in publication PMC4450297, “Screening Active Compounds from Garcinia Species Native to China Reveals Novel Compounds Targeting the STAT/JAK Signaling Pathway” (BioMed Research International, 2015).

What was measured:
Assay in all cases: Cell panel screen (CellTiter-Glo)
Type in all cases: cell-based, human
[1] = system: SW13; settings: SW13 (Adrenal gland), 20 micromolar, 72 hrs
How it was run: (§1)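 Compound, diluted from DMSO into culture medium, was added at a final 20 μM; control wells got equal DMSO. After 72 h, luminescent ATP signal was recorded and converted to percent inhibition.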

[2] = system: C8166; settings: C8166 (Leukemia), 20 micromolar, 72 hrs
How it was run: as §1

[3] = system: NCI-H1694; settings: NCI-H1694 (Lung), 20 micromolar, 72 hrs
How it was run: as §1

[4] = system: BT-474; settings: BT-474 (Breast), 20 micromolar, 72 hrs
How it was run: as §1

[5] = system: NCI-H1770; settings: NCI-H1770 (Lung), 20 micromolar, 72 hrs
How it was run: as §1

[6] = system: M059J; settings: M059J (Brain), 20 micromolar, 72 hrs
How it was run: as §1

[7] = system: HCC1395; settings: HCC1395 (Breast), 20 micromolar, 72 hrs
How it was run: as §1

[8] = system: BT-549; settings: BT-549 (Breast), 20 micromolar, 72 hrs
How it was run: as §1

[9] = system: CCF-STTG1; settings: CCF-STTG1 (Brain), 20 micromolar, 72 hrs
How it was run: as §1

[10] = system: HCC1599; settings: HCC1599 (Breast), 20 micromolar, 72 hrs
How it was run: as §1

[11] = system: TCCSUP; settings: TCCSUP (Urinary bladder), 20 micromolar, 72 hrs
How it was run: as §1

[12] = system: C3A; settings: C3A (Liver), 20 micromolar, 72 hrs
How it was run: as §1

[13] = system: A498; settings: A498 (listed under Lung), 20 micromolar, 72 hrs
How it was run: as §1

[14] = system: HT-1197; settings: HT-1197 (Urinary bladder), 20 micromolar, 72 hrs
How it was run: as §1

[15] = system: NCI-H524; settings: NCI-H524 (Lung), 20 micromolar, 72 hrs
How it was run: as §1

[16] = system: RL95; settings: RL95 (Uterus), 20 micromolar, 72 hrs
How it was run: as §1

[17] = system: NCI-H28; settings: NCI-H28 (Lung), 20 micromolar, 72 hrs
How it was run: as §1

[18] = system: ZR-75-30; settings: ZR-75-30 (Breast), 20 micromolar, 72 hrs
How it was run: as §1

[19] = system: CW-2; settings: CW-2 (Colon), 20 micromolar, 72 hrs
How it was run: as §1

[20] = system: MSTO-211-H; settings: MSTO-211-H (Lung), 20 micromolar, 72 hrs
How it was run: as §1

[21] = system: HCC1569; settings: HCC1569 (Breast), 20 micromolar, 72 hrs
How it was run: as §1

[22] = system: HEC-1-A; settings: HEC-1-A (Uterus), 20 micromolar, 72 hrs
How it was run: as §1

[23] = system: HGC-27; settings: HGC-27 (Stomach), 20 micromolar, 72 hrs
How it was run: as §1

[24] = system: HCC1937; settings: HCC1937 (Breast), 20 micromolar, 72 hrs
How it was run: as §1

[25] = system: NCI-H2347; settings: NCI-H2347 (Lung), 20 micromolar, 72 hrs
How it was run: as §1

[26] = system: HPAF-II; settings: HPAF-II (Pancreas), 20 micromolar, 72 hrs
How it was run: as §1

[27] = system: A704; settings: A704 (Kidney), 20 micromolar, 72 hrs
How it was run: as §1

[28] = system: NCI-H2405; settings: NCI-H2405 (Lung), 20 micromolar, 72 hrs
How it was run: as §1

[29] = system: J82; settings: J82 (Urinary bladder), 20 micromolar, 72 hrs
How it was run: as §1

[30] = system: T47D; settings: T47D (Breast), 20 micromolar, 72 hrs
How it was run: as §1

[31] = system: Panc 03.27; settings: Panc 03.27 (Pancreas), 20 micromolar, 72 hrs
How it was run: as §1

[32] = system: Bel-7402; settings: Bel-7402 (Liver), 20 micromolar, 72 hrs
How it was run: as §1

[33] = system: NCI-H1623; settings: NCI-H1623 (Lung), 20 micromolar, 72 hrs
How it was run: as §1

[34] = system: T98G; settings: T98G (Brain), 20 micromolar, 72 hrs
How it was run: as §1

[35] = system: Colo 205; settings: Colo 205, 20 micromolar, 72 hrs
How it was run: as §1

[36] = system: ChaGo-K-1; settings: ChaGo-K-1 (Lung), 20 micromolar, 72 hrs
How it was run: as §1

Compound | Percent Inhibition [1] | Percent Inhibition [2] | Percent Inhibition [3] | Percent Inhibition [4] | Percent Inhibition [5] | Percent Inhibition [6] | Percent Inhibition [7] | Percent Inhibition [8] | Percent Inhibition [9] | Percent Inhibition [10] | Percent Inhibition [11] | Percent Inhibition [12] | Percent Inhibition [13] | Percent Inhibition [14] | Percent Inhibition [15] | Percent Inhibition [16] | Percent Inhibition [17] | Percent Inhibition [18] | Percent Inhibition [19] | Percent Inhibition [20] | also measured
O=c1c2cc(O)c(O)cc2oc2cc(O)cc(O)c12 [Ge-17] | 8% | 62% | 99% | -7% | 72% | 63% | 38% | 40% | 15% | 79% | 61% | 33% | 41% | 16% | 47% | 53% | 9% | 6% | 25% | 74% | Percent Inhibition [21]: 16%; Percent Inhibition [22]: 51%; Percent Inhibition [23]: 55%; Percent Inhibition [24]: 65%; Percent Inhibition [25]: 4%; Percent Inhibition [26]: 13%; Percent Inhibition [27]: 1%; Percent Inhibition [28]: -5%; Percent Inhibition [29]: 47%; Percent Inhibition [30]: 48%; Percent Inhibition [31]: 20%; Percent Inhibition [32]: 7%; Percent Inhibition [33]: 2%; Percent Inhibition [34]: 54%; Percent Inhibition [35]: 3%; Percent Inhibition [36]: 22%
CCOC1C2C(=O)c3c(O)c4c(c(CC=C(C)C)c3O[C@@]23[C@H]2C[C@@H]1C(=O)[C@]3(C/C=C(/C)C(=O)O)OC2(C)C)OC(C)(CCC=C(C)C)C=C4 (stereo partly drawn) [GB19] | 99% | 99% | 99% | 99% | 99% | 99% | 99% | 99% | 99% | 99% | 99% | 99% | 99% | 99% | 99% | 99% | 99% | 99% | 99% | 99% | Percent Inhibition [21]: 99%; Percent Inhibition [22]: 99%; Percent Inhibition [23]: 99%; Percent Inhibition [24]: 99%; Percent Inhibition [25]: 98%; Percent Inhibition [26]: 98%; Percent Inhibition [27]: 99%; Percent Inhibition [28]: 99%; Percent Inhibition [29]: 99%; Percent Inhibition [30]: 99%; Percent Inhibition [31]: 99%; Percent Inhibition [32]: 99%; Percent Inhibition [33]: 99%; Percent Inhibition [34]: 99%; Percent Inhibition [35]: 99%; Percent Inhibition [36]: 99%
O=C1c2c(O)cc(O)cc2OC(c2ccc(O)c(O)c2)C1O (stereo not drawn) [gl-34] | -13% | 7% | 10% | -15% | 0% | 9% | 16% | -9% | 4% | 42% | 4% | -13% | 2% | 10% | -31% | 3% | -11% | 14% | 7% | -9% | Percent Inhibition [21]: 3%; Percent Inhibition [22]: -5%; Percent Inhibition [23]: -8%; Percent Inhibition [24]: 8%; Percent Inhibition [25]: 2%; Percent Inhibition [26]: 6%; Percent Inhibition [27]: -13%; Percent Inhibition [28]: -5%; Percent Inhibition [29]: 3%; Percent Inhibition [30]: -6%; Percent Inhibition [31]: 9%; Percent Inhibition [32]: -9%; Percent Inhibition [33]: -7%; Percent Inhibition [34]: 1%; Percent Inhibition [35]: 1%; Percent Inhibition [36]: -3%
Bannaxanthone G [bn-21] | 92% | 90% | 100% | 88% | 94% | 94% | 95% | 70% | 68% | 97% | 84% | 62% | 60% | 91% | 100% | 88% | 73% | 99% | 99% | 90% | Percent Inhibition [21]: 76%; Percent Inhibition [22]: 71%; Percent Inhibition [23]: 84%; Percent Inhibition [24]: 92%; Percent Inhibition [25]: 75%; Percent Inhibition [26]: 84%; Percent Inhibition [27]: 64%; Percent Inhibition [28]: 80%; Percent Inhibition [29]: 88%; Percent Inhibition [30]: 64%; Percent Inhibition [31]: 95%; Percent Inhibition [32]: 93%; Percent Inhibition [33]: 72%; Percent Inhibition [34]: 77%; Percent Inhibition [35]: 100%; Percent Inhibition [36]: 95%
COc1cc(O)c2c(=O)c3c(CC=C(C)C)cc(O)c(O)c3oc2c1CC=C(C)CCC=C(C)C [Go-23] | 96% | 95% | 98% | 70% | 98% | 93% | 97% | 96% | 87% | 98% | 93% | 77% | 94% | 96% | 98% | 97% | 82% | 95% | 97% | 95% | Percent Inhibition [21]: 97%; Percent Inhibition [22]: 76%; Percent Inhibition [23]: 97%; Percent Inhibition [24]: 96%; Percent Inhibition [25]: 68%; Percent Inhibition [26]: 82%; Percent Inhibition [27]: 96%; Percent Inhibition [28]: 98%; Percent Inhibition [29]: 97%; Percent Inhibition [30]: 94%; Percent Inhibition [31]: 92%; Percent Inhibition [32]: 96%; Percent Inhibition [33]: 92%; Percent Inhibition [34]: 98%; Percent Inhibition [35]: 96%; Percent Inhibition [36]: 94%
